According to PubChem BioAssay AID1918935 (Molecular Pharmacology Branch, DTP, NCI, 2023):
pIC50: −log10 of the molar value. Values joined by “and” are separate entries in the source; they are usually repeats but may differ in a detail not shown here. Equal entries are not always repeated.

System: 324938-238-R-J1-PDC complex spheroid viability
Test: Anticancer human tumor 324938-238-R-J1-PDC patient-derived bladder carcinoma cell line growth inhibition
Details: for viability, T/C: stronger effect = lower value
Text: Multicellular complex tumor spheroid response to LSD1 Inhibitor Iadademstat in combination with a variety of drugs and investigational agents in selected tumor cell lines
The current study was undertaken to assess response to LSD1 inhibitors in combination with standard-of-care drugs and investigational agents in solid tumor complex spheroid models as well as in the K-562 leukemia. Complex spheroids include a stromal component modeled by human endothelial cells (HUVEC) and fibroblasts modeled by human mesenchymal stem cells (MSCs). The concentration ranges selected for each drug and investigational agent were based upon clinically achievable concentrations if the clinical Cmax of the agent was known.
Compounds. The drugs and investigational agents used in this study are listed on Table 1. All of the agents used, including staurosporine (NSC755774) and gemcitabine (NSC613327), were obtained from the Developmental Therapeutics Program, NCI. FDA-approved anticancer drugs are available from the NCI at http://dtp.nci.nih.gov/branches/dscb/oncology_drugset_explanation.html. Drugs and investigational agents were >95% pure by proton nuclear magnetic resonance (NMR) and liquid chromatography/mass spectrometry (LC/MS). Stock solutions were prepared at 400x in DMSO, stored at -70 degrees C, and diluted in fresh medium prior to their use. The final concentration of DMSO in cell culture wells never exceeded 0.25% (v/v). The FDA-approved anticancer drug set is available from the Developmental Therapeutics Program at https://dtp.cancer.gov/organization/dscb/obtaining/available_plates.htm. All drugs and investigational agents were tested over a range starting from a high concentration at or near the clinical Cmax and decreasing in half-log increments. If the clinical Cmax for an agent had not been determined, the highest concentration tested was 10 microM.
Cell Lines. The patient-derived cancer cell (PDC) lines: 292921-168-R-J2-PDC, K24384-001-R-PDC, and 521955-158-R2-J5-PDC pancreatic carcinomas, 556581-035-R-J1 ovarian carcinoma, 324938-238-R-J1-PDC, 855422-203-R-J1-PDC and 883617-216-R-J1-PDC urothelial bladder carcinomas, 743489-274-T-PDC renal cell carcinoma, 138582-R-J1 Merkel cell tumor, K60290-347-R-J1 and K57222-313-R-J1-PDC glioblastomas, 653999-131-R-J2-PDC, LG0703-F948-PDC, and 349418-098-R-PDC non-small cell lung carcinomas, 885512-296-R-J2-PDC, 171881-019-R-J1-PDC breast carcinomas and 186277-243-T-J2-PDC and 233499-124-R-J2-PDC colon carcinomas were obtained from the NCI Patient-Derived Models Repository (PDMR, https://pdmr.cancer.gov). The established cell lines NCI/ADR-RES (RRID:CVCL_14520 and OVCAR-5 (RRID:CVCL_1628) ovarian carcinomas, 786-O (RRID:CVCL_1051) and A498 (RRID:CVCL_A498) renal cell carcinoma, NCI-H211 (ATCC, cat. CRL-5824; RRID:CVCL_1529), NCI-H196 (ATCC, cat. CRL-5823, RRID:CVCL_1509), SW 1271 (ATCC, cat. CRL-2177, RRID:CVCL_1716) and NCI-H1876 (ATCC, cat. CRL-5902, RRID:CVCL_1503) small cell lung carcinomas, MDA-MB-231 (RRID:CVCL_0062) and MDA-MB-468 (RRID:CVCL_0419)breast carcinomas (10-12). Pooled donor human umbilical vein endothelial cells (HUVEC, Lonza, cat. CC-2519) and human mesenchymal stem cells (hMSC, Lonza, cat. PT-2501) were purchased from Lonza (Walkersville, MD).
Cell Culture. All cells were maintained in an incubator at 37 degrees C and 5% CO2 with 95% humidity. The PDC lines were cultured according to standard operating procedures established by the NCI PDMR (https://pdmr.cancer.gov). Briefly all PDCs were thawed and cultured in Matrigel-coated flasks prepared with a working solution of 1X Ham's F-12 nutrient mix, without supplementation (Invitrogen, Waltham, MA, cat. 11765054), 100 U/mL penicillin-streptomycin (Invitrogen, cat. 15140122), and 2.5% Matrigel (Corning Inc., Corning, NY, cat. 354248) for the first three passages. […]

[1] = curve of first compound, second compound 0.1 µM
[2] = curve of first compound, second compound 0.316 µM
[3] = curve of first compound, second compound 1 µM
[4] = curve of first compound, second compound 3.16 µM
[5] = curve of first compound, second compound 10 µM
[6] = second compound 0.1 µM, first compound 0.00949 µM
[7] = second compound 0.1 µM, first compound 0.03 µM
[8] = second compound 0.1 µM, first compound 0.0949 µM
[9] = second compound 0.1 µM, first compound 0.3 µM
[10] = second compound 0.316 µM, first compound 0.00949 µM
[11] = second compound 0.316 µM, first compound 0.03 µM
[12] = second compound 0.316 µM, first compound 0.0949 µM
[13] = second compound 0.316 µM, first compound 0.3 µM
[14] = second compound 1 µM, first compound 0.00949 µM
[15] = second compound 1 µM, first compound 0.03 µM
[16] = second compound 1 µM, first compound 0.0949 µM
[17] = second compound 1 µM, first compound 0.3 µM
[18] = second compound 3.16 µM, first compound 0.00949 µM
[19] = second compound 3.16 µM, first compound 0.03 µM
[20] = second compound 3.16 µM, first compound 0.0949 µM
[21] = second compound 3.16 µM, first compound 0.3 µM
[22] = second compound 10 µM, first compound 0.00949 µM
[23] = second compound 10 µM, first compound 0.03 µM
[24] = second compound 10 µM, first compound 0.0949 µM
[25] = second compound 10 µM, first compound 0.3 µM
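Further: spheroids also contain HUVEC and human MSCs and agents combined with iadademstat; spheroids exposed to agents for 7 days before readout.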

For `CCc1c2c(nc3ccc(O)cc13)-c1cc3c(c(=O)n1C2)COC(=O)[C@]3(O)CC` + NC1CC1c1ccc(-c2cccc(O)c2)cc1, the pIC50 [1] was over 9.02, the pIC50 [2] was over 9.02 and the pIC50 [3] was over 9.02. The pIC50 [4] was over 9.02, the pIC50 [5] was over 9.02 and the viability, T/C (second compound 0.1 µM, first compound 0.000949 µM) was 8.63%. The viability, T/C (second compound 0.1 µM, first compound 0.003 µM) was 8.28%, the viability, T/C [6] was 6.38% and the viability, T/C [7] was 2.62%. For the same compound, the viability, T/C [8] was 1.19%, the viability, T/C [9] was 0.47% and the viability, T/C (second compound 0.316 µM, first compound 0.000949 µM) was 7.65%. For the same compound, the viability, T/C (second compound 0.316 µM, first compound 0.003 µM) was 7.41%, the viability, T/C [10] was 5.98% and the viability, T/C [11] was 2.79%. For the same compound, the viability, T/C [12] was 0.46%, the viability, T/C [13] was 0.55% and the viability, T/C (second compound 1 µM, first compound 0.000949 µM) was 6.57%. For the same compound, the viability, T/C (second compound 1 µM, first compound 0.003 µM) was 8.14%, the viability, T/C [14] was 6.37% and the viability, T/C [15] was 1.95%. The viability, T/C [16] was 0.51%, the viability, T/C [17] was 0.15% and the viability, T/C (second compound 3.16 µM, first compound 0.000949 µM) was 6.75%. It also gave a viability, T/C (second compound 3.16 µM, first compound 0.003 µM) of 6.96%, a viability, T/C [18] of 6.25% and a viability, T/C [19] of 2.46%. For the same compound, the viability, T/C [20] was 0.53%, the viability, T/C [21] was 0.31% and the viability, T/C (second compound 10 µM, first compound 0.000949 µM) was 10.5%. The viability, T/C (second compound 10 µM, first compound 0.003 µM) was 9.76%, the viability, T/C [22] was 7.12% and the viability, T/C [23] was 2.62%. It also gave a viability, T/C [24] of 0.17% and a viability, T/C [25] of 0.23%.

In the case of `NC1CCC(NC2CC2c2ccccc2)CC1` (stereo unspecified), the viability, T/C (compound 0.1 µM) was 78.6% [middle of 25 runs], the viability, T/C (compound 0.316 µM) was 86.7% and 75.8% and 76.6% and the viability, T/C (compound 1 µM) was 75.9% [middle of 25 runs]. The viability, T/C (compound 3.16 µM) was 73.6% [middle of 24 runs], the viability, T/C (compound 10 µM) was 72.2% [middle of 23 runs] and the pIC50 (compound alone, run of 11/29/2021) was under 5.00.

In the case of `CCN(c1cc(-c2ccc(CN3CCOCC3)cc2)cc(C(=O)NCc2c(C)cc(C)[nH]c2=O)c1C)C1CCOCC1` + NC1CCC(NC2CC2c2ccccc2)CC1, the pIC50 [1] was under 5.52, the pIC50 [2] was under 5.52 and the pIC50 [3] was under 5.52. For the same compound, the pIC50 [4] was under 5.52, the pIC50 [5] was under 5.52 and the viability, T/C [6] was 76.4%. The viability, T/C [7] was 75.4%, the viability, T/C [8] was 76.7% and the viability, T/C [9] was 77.6%. The viability, T/C (second compound 0.1 µM, first compound 0.949 µM) was 75.8%, the viability, T/C (second compound 0.1 µM, first compound 3 µM) was 77.6% and the viability, T/C [10] was 74.5%. The viability, T/C [11] was 83.1%, the viability, T/C [12] was 70.5% and the viability, T/C [13] was 74.8%. The viability, T/C (second compound 0.316 µM, first compound 0.949 µM) was 80.4%, the viability, T/C (second compound 0.316 µM, first compound 3 µM) was 75.1% and the viability, T/C [14] was 74.5%. The viability, T/C [15] was 74.7%, the viability, T/C [16] was 71.5% and the viability, T/C [17] was 81%. The viability, T/C (second compound 1 µM, first compound 0.949 µM) was 72.8%, the viability, T/C (second compound 1 µM, first compound 3 µM) was 81.7% and the viability, T/C [18] was 67.8%. The viability, T/C [19] was 74.7%, the viability, T/C [20] was 71.5% and the viability, T/C [21] was 74%. It also gave a viability, T/C (second compound 3.16 µM, first compound 0.949 µM) of 72.9%, a viability, T/C (second compound 3.16 µM, first compound 3 µM) of 69% and a viability, T/C [22] of 72.1%. For the same compound, the viability, T/C [23] was 68.7%, the viability, T/C [24] was 76.5% and the viability, T/C [25] was 70.5%. For the same compound, the viability, T/C (second compound 10 µM, first compound 0.949 µM) was 66.4% and the viability, T/C (second compound 10 µM, first compound 3 µM) was 74.2%.

`CC1COCCN1c1cc(C2(S(C)(=N)=O)CC2)nc(-c2ccnc3[nH]ccc23)n1` (stereo unspecified) + NC1CCC(NC2CC2c2ccccc2)CC1 was tested, and the pIC50 [1] was 6.12, the pIC50 [2] was 6.07 and the pIC50 [3] was 6.09. It also gave a pIC50 [4] of 6.26, a pIC50 [5] of 6.11 and a viability, T/C (second compound 0.1 µM, first compound 0.0316 µM) of 91.8%. It also gave a viability, T/C (second compound 0.1 µM, first compound 0.1 µM) of 78.1%, a viability, T/C (second compound 0.1 µM, first compound 0.316 µM) of 62.9% and a viability, T/C (second compound 0.1 µM, first compound 1 µM) of 48.9%. For the same compound, the viability, T/C (second compound 0.1 µM, first compound 3.16 µM) was 24.5%, the viability, T/C (second compound 0.1 µM, first compound 10 µM) was 13.3% and the viability, T/C (second compound 0.316 µM, first compound 0.0316 µM) was 93.9%. For the same compound, the viability, T/C (second compound 0.316 µM, first compound 0.1 µM) was 81.1%, the viability, T/C (second compound 0.316 µM, first compound 0.316 µM) was 72% and the viability, T/C (second compound 0.316 µM, first compound 1 µM) was 43.4%. For the same compound, the viability, T/C (second compound 0.316 µM, first compound 3.16 µM) was 30.4%, the viability, T/C (second compound 0.316 µM, first compound 10 µM) was 15.2% and the viability, T/C (second compound 1 µM, first compound 0.0316 µM) was 73.1%. It also gave a viability, T/C (second compound 1 µM, first compound 0.1 µM) of 77.2%, a viability, T/C (second compound 1 µM, first compound 0.316 µM) of 68.8% and a viability, T/C (second compound 1 µM, first compound 1 µM) of 43.9%. The viability, T/C (second compound 1 µM, first compound 3.16 µM) was 28.5%, the viability, T/C (second compound 1 µM, first compound 10 µM) was 16.7% and the viability, T/C (second compound 3.16 µM, first compound 0.0316 µM) was 68.8%. The viability, T/C (second compound 3.16 µM, first compound 0.1 µM) was 80%, the viability, T/C (second compound 3.16 µM, first compound 0.316 µM) was 57.6% and the viability, T/C (second compound 3.16 µM, first compound 1 µM) was 38.1%. It also gave a viability, T/C (second compound 3.16 µM, first compound 3.16 µM) of 25.9%, a viability, T/C (second compound 3.16 µM, first compound 10 µM) of 16.5% and a viability, T/C (second compound 10 µM, first compound 0.0316 µM) of 77.8%. The viability, T/C (second compound 10 µM, first compound 0.1 µM) was 85.7%, the viability, T/C (second compound 10 µM, first compound 0.316 µM) was 66.2% and the viability, T/C (second compound 10 µM, first compound 1 µM) was 43.7%. The viability, T/C (second compound 10 µM, first compound 3.16 µM) was 28.2% and the viability, T/C (second compound 10 µM, first compound 10 µM) was 16.8%.
